Test results taken from patent US5900436A, “Substituted indanylidineacetylguanidines, processes for their preparation, their use as medicaments or diagnostics and medicaments containing them” (priority 1996, dated 1999).

Legend:
rat hearts = details: isolated rat hearts, cited from earlier work
Na^+ /H^+ exchanger = molecular target: T1, Na^+ /H^+ exchanger (Oryctolagus cuniculus, UniProt P23791); test: Sodium-Proton exchange inhibition in rabbit erythrocytes; assay type: cell-based, rabbit (Albino rabbits of New Zealand strain); details: concentration necessary to reduce the erythrocyte sodium content to 50%; erythrocytes of rabbits fed 2% cholesterol diet six weeks; 37° C., 1 hour, hyperosmolar sucrose buffer with ouabain
T1 construct: increase the exchanger activity in the rabbit erythrocytes; endogenous in cells; host or cells: erythrocytes in blood of cholesterol-fed New Zealand albino rabbits
Description: Sodium -Proton exchange inhibition in rabbit erythrocytes:
Albino rabbits of New Zealand strain were fed with 2% cholesterol diet for six weeks prior to collecting blood for the determination of Na^+ /H^+ exchanger activity in the erythrocytes. Hypercholesteremia has been reported to increase the exchanger activity in the rabbit erythrocytes (Scholz et al, 1990; Arteriosklerose-Neue Aspekte aus Zellbiologie und Molekulargenetik, Epidemiologie und Klinik; Assmann, G. et al, Eds, Braunschweig, Wiesbaden, Vieweg, 296-302 ). Blood samples were collected from the ear vein and hematocrit was determined. About […] of blood was incubated at 37° C. for 1 hour with hyperosmolar sucrose buffer containing 0.1 mmoles Ouabain in the presence and absence of test sample. After the incubation period, the reaction was stopped by addition of 5 ml of ice cold MgCl2 solution containing 0.1 mmole Ouabain. The erythrocytes were washed three times with 5 ml quantities of MgCl2 solution. They were hemolyzed by the addition of 4 ml of distilled water and the sodium content of the hemolyzate was determined by flame-photometry. The activity of the test compound was determined by its ability to reduce the sodium content of the erythrocyte and was expressed as IC50 which is the concentration necessary to reduce the erythrocyte sodium content to 50%.

[1] = Circulation 79, 1257-1263 (1989); cited from earlier work

T1 sequence (P23791 whole entry): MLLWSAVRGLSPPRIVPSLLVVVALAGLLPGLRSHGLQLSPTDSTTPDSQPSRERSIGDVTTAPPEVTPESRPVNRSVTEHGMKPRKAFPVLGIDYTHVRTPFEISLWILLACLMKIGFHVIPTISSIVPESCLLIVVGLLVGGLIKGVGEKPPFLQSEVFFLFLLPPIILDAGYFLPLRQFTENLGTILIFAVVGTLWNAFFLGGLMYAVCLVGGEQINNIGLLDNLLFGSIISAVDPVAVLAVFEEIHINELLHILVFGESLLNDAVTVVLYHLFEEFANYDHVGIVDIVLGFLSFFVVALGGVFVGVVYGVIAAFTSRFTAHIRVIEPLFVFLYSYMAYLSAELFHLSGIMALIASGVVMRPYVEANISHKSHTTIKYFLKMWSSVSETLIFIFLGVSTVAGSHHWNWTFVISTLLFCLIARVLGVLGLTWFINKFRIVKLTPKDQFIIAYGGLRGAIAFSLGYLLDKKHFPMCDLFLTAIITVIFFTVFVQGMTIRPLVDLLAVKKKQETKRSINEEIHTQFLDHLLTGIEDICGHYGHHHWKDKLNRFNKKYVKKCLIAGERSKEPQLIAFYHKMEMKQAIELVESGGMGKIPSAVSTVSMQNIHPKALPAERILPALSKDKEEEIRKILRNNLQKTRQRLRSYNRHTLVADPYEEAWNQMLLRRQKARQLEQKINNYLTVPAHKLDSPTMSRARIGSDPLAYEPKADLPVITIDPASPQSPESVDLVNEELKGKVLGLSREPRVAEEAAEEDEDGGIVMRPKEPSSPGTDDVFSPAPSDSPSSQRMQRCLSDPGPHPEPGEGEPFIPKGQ

IC50 (Na^+ /H^+ exchanger)	SMILES	also measured
–	CCN(c1nc(N)c(C(=O)N=C(N)N)nc1Cl)C(C)C [ethylisopropylamiloride]	potency relative to amiloride against artificially induced ventricular fibrillation (rat hearts): even more potent than amiloride
0.7 µM	Cc1cccc2c1CCC2=CC(=O)N=C(N)N [Compound No. 4, 4-methyl-1-indanylidineacetyl-guanidine-methanesulfonic acid]	–
0.66 µM	COc1ccc2c(c1)C(=CC(=O)N=C(N)N)CC2 [compound 6]	–
0.45 µM	Cc1ccc2c(c1)CCC2=CC(=O)N=C(N)N [compound 7]	–
–	N=C(N)NC(=O)c1nc(Cl)c(N)nc1N [amiloride]	antiarrhythmic effect [1]: only slight; suppression of artificially induced ventricular fibrillation (rat hearts; Eur. Heart J. 9 {supplement 1}: 167 (1988)): suppress an artificially induced ventricular fibrillation completely
